# In PubChem BioAssay (NCI):
# Where “and” joins values, the source holds several entries; their conditions need not be identical. Identical values can stand only once.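 Compound exposure: 48 hours, 5 concentrations, 96-well plates. GI50 marks 50% less growth. The concentration for full growth arrest is given as TGI.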
# What was measured:
# Assay in all cases: inhibition of tumour cell growth, NCI panel, 48 h
# [1] = tested on: DU-145 prostate
# [2] = tested on: CAKI-1 renal
# [3] = tested on: HOP-92 NSCLC
# [4] = tested on: SF-268 CNS
# [5] = tested on: HT29 colon
# [6] = tested on: MALME-3M melanoma
# [7] = tested on: SW-620 colon
# [8] = tested on: MCF7 breast
# [9] = tested on: CCRF-CEM leukemia
# [10] = tested on: NCI/ADR-RES ovarian
# [11] = tested on: M14 melanoma
# [12] = tested on: A549 NSCLC
# [13] = tested on: EKVX NSCLC
# [14] = tested on: UO-31 renal
# [15] = tested on: OVCAR-4 ovarian
# [16] = tested on: NCI-H23 lung
# [17] = tested on: SN12C renal
# [18] = tested on: NCI-H522 lung
# [19] = tested on: 786-0 renal
# [20] = tested on: TK-10 renal
# [21] = tested on: OVCAR-8 ovarian
# [22] = tested on: HCT-116 colon
# [23] = tested on: RPMI-8226 leukemia
# [24] = tested on: SR leukemia
# [25] = tested on: OVCAR-5 ovarian
# [26] = tested on: SK-OV-3 ovarian
# [27] = tested on: MDA-MB-231 breast
# [28] = tested on: SK-MEL-2 melanoma
# [29] = tested on: NCI-H460 lung
# [30] = tested on: COLO 205 colon
# [31] = tested on: RXF 393 renal
# [32] = tested on: MOLT-4 leukemia
# [33] = tested on: SNB-19 CNS
# [34] = tested on: NCI-H226 lung
# [35] = tested on: HOP-62 NSCLC
# [36] = tested on: IGROV1 ovarian
# [37] = tested on: U251 CNS
# [38] = tested on: BT-549 breast
# [39] = tested on: HCT-15 colon
# [40] = tested on: SK-MEL-5 melanoma
# [41] = tested on: K-562 leukemia
# [42] = tested on: HCC-2998 colon
# [43] = tested on: SNB-75 CNS
# [44] = tested on: KM12 colon
# [45] = tested on: HS 578T breast
# [46] = tested on: ACHN renal
# [47] = tested on: SK-MEL-28 melanoma
# [48] = tested on: UACC-257 melanoma
# [49] = tested on: UACC-62 melanoma
# [50] = tested on: LOX IMVI melanoma
# [51] = tested on: OVCAR-3 ovarian
# [52] = tested on: A498 renal
# [53] = tested on: PC-3 prostate
# [54] = tested on: MDA-MB-435
# [55] = tested on: T-47D breast
# [56] = tested on: SF-539 CNS
# [57] = tested on: SF-295 CNS
# [58] = tested on: HL-60(TB) leukemia
smiles,measurement,setting,value
CS(=O)(=O)N1CCc2c(-c3cnc(N)nc3)nc(N3CCOCC3)nc21,GI50,[1],632 nM and 503 nM
same,TGI,[1],> 45900 nM
same,GI50,[2],484 nM and 651 nM
same,TGI,[2],> 10000 nM and 7760 nM
same,GI50,[3],102 nM and 112 nM
same,TGI,[3],641 nM and 1350 nM
same,GI50,[4],821 nM and 1050 nM
same,TGI,[4],> 51600 nM
same,GI50,[5],260 nM and 307 nM
same,TGI,[5],> 77500 nM
same,GI50,[6],619 nM and 488 nM
same,TGI,[6],> 6870 nM and 4870 nM
same,GI50,[7],1540 nM and 1290 nM
same,TGI,[7],> 100000 nM
same,GI50,[8],96.1 nM and 50 nM
same,TGI,[8],> 76100 nM
same,GI50,[9],658 nM and 1230 nM
same,TGI,[9],> 100000 nM
same,GI50,[10],2160 nM and 1630 nM
same,TGI,[10],> 100000 nM
same,GI50,[11],1430 nM and 625 nM
same,TGI,[11],> 41000 nM
same,GI50,[12],644 nM and 413 nM
same,TGI,[12],> 10000 nM and 5450 nM
same,GI50,[13],988 nM and 440 nM
same,TGI,[13],> 10000 nM and 5740 nM
same,GI50,[14],180 nM and 136 nM
same,TGI,[14],3140 nM and 3030 nM
same,GI50,[15],1210 nM and 945 nM
same,TGI,[15],> 25700 nM
same,GI50,[16],1940 nM and 1370 nM
same,TGI,[16],> 100000 nM
same,GI50,[17],648 nM and 667 nM
same,TGI,[17],> 100000 nM
same,GI50,[18],642 nM and 2100 nM
same,TGI,[18],> 48700 nM
same,GI50,[19],696 nM and 562 nM
same,TGI,[19],> 8810 nM and 16500 nM
same,GI50,[20],197 nM and 221 nM
same,TGI,[20],3250 nM and 4090 nM
same,GI50,[21],1650 nM and 984 nM
same,TGI,[21],> 10000 nM and 14000 nM
same,GI50,[22],571 nM and 553 nM
same,TGI,[22],> 100000 nM
same,GI50,[23],1520 nM and 2500 nM
same,TGI,[23],> 100000 nM
same,GI50,[24],2080 nM and 1960 nM
same,TGI,[24],> 100000 nM
same,GI50,[25],685 nM and 461 nM
same,TGI,[25],> 62600 nM
same,GI50,[26],128 nM and 166 nM
same,TGI,[26],692 nM and 1370 nM
same,GI50,[27],1290 nM and 1260 nM
same,TGI,[27],> 10000 nM and 23400 nM
same,GI50,[28],1280 nM and 1770 nM
same,TGI,[28],8660 nM and 14000 nM
same,GI50,[29],333 nM and 286 nM
same,TGI,[29],> 100000 nM
same,GI50,[30],444 nM and 516 nM
same,TGI,[30],> 10000 nM and 13000 nM
same,GI50,[31],605 nM and 421 nM
same,TGI,[31],4040 nM and 3270 nM
same,GI50,[32],920 nM and 807 nM
same,TGI,[32],> 100000 nM
same,GI50,[33],2210 nM and 1640 nM
same,TGI,[33],> 59500 nM
same,GI50,[34],520 nM and 343 nM
same,TGI,[34],9450 nM and 12500 nM
same,GI50,[35],1260 nM and 795 nM
same,TGI,[35],> 10000 nM and 11800 nM
same,GI50,[36],86.8 nM and 66.4 nM
same,TGI,[36],443 nM and 485 nM
same,GI50,[37],1700 nM and 1270 nM
same,TGI,[37],> 10000 nM and 23000 nM
same,GI50,[38],510 nM and 479 nM
same,TGI,[38],6080 nM and 6390 nM
same,GI50,[39],397 nM and 419 nM
same,TGI,[39],> 100000 nM
same,GI50,[40],1780 nM and 1360 nM
same,TGI,[40],> 30700 nM
same,GI50,[41],> 6980 nM and 5300 nM
same,TGI,[41],> 100000 nM
same,GI50,[42],923 nM and 794 nM
same,TGI,[42],> 73500 nM
same,GI50,[43],146 nM and 135 nM
same,TGI,[43],1300 nM and 929 nM
same,GI50,[44],2100 nM and 2250 nM
same,TGI,[44],> 100000 nM
same,GI50,[45],324 nM and 222 nM
same,TGI,[45],3300 nM and 1860 nM
same,GI50,[46],735 nM and 677 nM
same,TGI,[46],> 100000 nM
same,GI50,[47],646 nM and 695 nM
same,TGI,[47],8180 nM and 13100 nM
same,GI50,[48],809 nM and 446 nM
same,TGI,[48],6850 nM and 3800 nM
same,GI50,[49],280 nM and 393 nM
same,TGI,[49],2240 nM and 2900 nM
same,GI50,[50],579 nM and 406 nM
same,TGI,[50],> 94200 nM
same,GI50,[51],590 nM and 641 nM
same,TGI,[51],> 21400 nM
same,GI50,[52],203 nM and 101 nM
same,TGI,[52],836 nM and 447 nM
same,GI50,[53],279 nM and 258 nM
same,TGI,[53],> 5950 nM and 11000 nM
same,GI50,[54],940 nM and 780 nM
same,TGI,[54],> 10000 nM and 12600 nM
same,GI50,[55],41 nM and 46.8 nM
same,TGI,[55],399 nM and 463 nM
same,GI50,[56],835 nM and 878 nM
same,TGI,[56],4130 nM and 3890 nM
same,GI50,[57],556 nM and 354 nM
same,TGI,[57],3910 nM and 3290 nM
same,GI50,[58],415 nM
same,TGI,[58],> 100000 nM
